Article PMC1920558 (PLoS ONE, 2007)
Entries after “also recorded” stand apart in the source; their conditions may differ. Where a SMILES comes first, the peptide text is derived from it.

Tests used:
NEP = NEP digestion, products by RP-HPLC and MS; format: in vitro ADME; settings: 37°C; for effect of NEP exposure on peptide level: 60 µM peptide, 1.2 µM NEP, 4 hours, 100 mM Tris-HCl pH 7.4, 1% Triton X-100, RP-HPLC
Experimental: Figure 4 NEP preferentially degrades monomeric forms of AChE586-599. (A) 60 µM of either substance P or T40 were incubated with or without 1.2 µM NEP (37°C, 4 hours) and the digestion mixture subjected to RP-HPLC. (B) Positions of NEP initial cleavages (arrows) within AChE586-599. (C) Cleavage map after complete NEP digestion of AChE586-599. 40 µM AChE586-599 was incubated with 772 nM NEP (30 min (B) or 4 hours (C), 37°C) and RP-HPLC peaks analyzed by MS. (D) NEP degrades AChE586-599 oligomers. […] Digestion products were analyzed as described in Figure 3C. Arrows indicate two digested AChE586-599 oligomers. (E) T40/IDE products are substrates for NEP. 60 µM T40 was incubated with 50 nM IDE (37°C, 30 min) and products separated by RP-HPLC. Peaks e–f (see Figure. 2C) were lyophilized, incubated with 772 nM NEP (37°C, 2 hours) and subjected to RP-HPLC.
60 µM substance P or T40 were incubated with or without 1.2 µM NEP (4 hours), stopped (0.5% trifluoroacetic acid) and subjected to RP-HPLC.

IDE [1] = target: T1, IDE (Rattus norvegicus, UniProt P35559); experiment: IDE digestion, products by RP-HPLC and MS; settings: 37°C
T1 sequence (P35559 1-1019): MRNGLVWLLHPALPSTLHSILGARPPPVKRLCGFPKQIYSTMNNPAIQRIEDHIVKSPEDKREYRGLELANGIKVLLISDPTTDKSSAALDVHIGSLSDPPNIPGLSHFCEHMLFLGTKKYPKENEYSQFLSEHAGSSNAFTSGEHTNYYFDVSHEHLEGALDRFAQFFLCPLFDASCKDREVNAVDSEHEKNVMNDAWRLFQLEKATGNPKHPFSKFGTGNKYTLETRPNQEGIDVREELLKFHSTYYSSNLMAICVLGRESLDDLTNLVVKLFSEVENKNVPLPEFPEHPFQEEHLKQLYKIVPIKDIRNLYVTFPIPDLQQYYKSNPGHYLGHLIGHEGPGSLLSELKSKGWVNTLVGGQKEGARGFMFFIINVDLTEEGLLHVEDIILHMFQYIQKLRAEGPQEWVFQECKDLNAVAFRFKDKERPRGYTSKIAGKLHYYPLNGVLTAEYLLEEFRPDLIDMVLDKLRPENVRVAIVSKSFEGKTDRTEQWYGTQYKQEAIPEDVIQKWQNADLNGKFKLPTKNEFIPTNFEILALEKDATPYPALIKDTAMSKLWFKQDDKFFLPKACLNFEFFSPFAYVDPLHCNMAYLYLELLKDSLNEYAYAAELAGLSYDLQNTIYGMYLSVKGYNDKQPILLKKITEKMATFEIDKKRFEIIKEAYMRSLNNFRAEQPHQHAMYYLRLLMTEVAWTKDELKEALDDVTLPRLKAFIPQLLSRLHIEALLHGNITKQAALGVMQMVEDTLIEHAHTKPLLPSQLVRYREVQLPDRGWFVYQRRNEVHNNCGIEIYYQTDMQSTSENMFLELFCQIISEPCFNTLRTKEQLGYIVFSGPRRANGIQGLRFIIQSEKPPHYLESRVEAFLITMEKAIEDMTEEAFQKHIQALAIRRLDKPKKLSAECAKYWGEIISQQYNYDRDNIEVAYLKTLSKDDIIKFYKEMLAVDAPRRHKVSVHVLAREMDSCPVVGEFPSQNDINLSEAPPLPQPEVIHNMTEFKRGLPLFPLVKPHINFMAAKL
Experimental: (§1) 16 µM T40 was incubated with or without 22 nM IDE (37°C) and the reaction stopped as indicated. (B) Specificity of IDE activity. […] For (A) and (B), digestion products were resolved (10% Tris-Tricine SDS-PAGE), electro-blotted onto nitrocellulose and probed with KD69 (specific for the T40). Marker proteins are indicated. Arrows indicate the positions of T40 monomers and dimers. (C) 60 µM T40 was incubated with or without 50 nM IDE (37°C) and products separated by RP-HPLC (peaks annotated a–h). (D) Positions of IDE initial cleavages (arrows) within T40 (2 min digestion). (E) Identity of the major peptides (italics) and of CSR species in peaks a–h, analyzed by MS.
(A) Positions of IDE initial cleavages (arrows) within AChE586-599. […] 63 µM AChE586-599 was incubated with or without 45 nM IDE (A) or 273 nM IDE (B)(37°C, 30 min) and RP-HPLC peaks analyzed by MS. […] AChE586-599 oligomers (16 µM) cross-linked by photo-induced cross-linking were incubated with or without 16.3 nM IDE (37°C). Digestion products were resolved (16.5% Tris-Tricine SDS-PAGE), electro-blotted onto nitrocellulose and probed with Mab 105A (specific for AChE586-599 in β-sheet conformation). Marker proteins are indicated.
To identify degradation products, 60 µM T40 was incubated with 50 nM IDE; 63 µM AChE586-599 with 45 nM or 273 nM IDE; and 40 µM AChE586-599 with 772 nM NEP and separated by reverse phase-HPLC (RP-HPLC). Peaks were collected and identities determined on a Q-TOF Micro mass spectrometer (Micromass, UK) with MassLynx 4.0 and MaxEnt 3 software. Lyophilized HPLC separated T40/IDE products were used for surface tension and seeding experiments.
Reaction products were resolved by RP-HPLC with a Sephasil C4 column (5 µm, 4.6×250 mm; Amersham Biosciences, UK) using a 5–95% linear gradient of acetonitrile in 0.1% trifluoroacetic acid over 25 min (flow rate 1 ml/min). The eluent was monitored by UV absorption at 280 nm.

IDE [2] = target: T1, IDE; experiment: IDE digestion of T40, SDS-PAGE and western blot with KD69; settings: 16 µM T40, 22 nM IDE, 37°C
Experimental: as §1
(§2) IDE and NEP (Merck, UK) digestions were at 37°C in 100 mM KHPO4/KH2PO4 buffer pH 7.5 (buffer A) or 100 mM Tris-HCl pH 7.4, 1% Triton X-100 (buffer B) respectively. 16 µM T40 was incubated with 22 nM IDE or 309 nM NEP, and 16 or 14.8 µM AChE586-599 oligomers with 16.3 nM IDE or 285 nM NEP. Reactions were stopped by boiling in a Laemmli's dissociation buffer with 100 mM DTT and subjected to SDS-PAGE (10% Tris-Tricine for T40 and 16.5% Tris-Tricine for AChE586-599 oligomers). […]

NEP (neprilysin), 772 nM = experiment: NEP in 100 mM Tris-HCl pH 7.4, 1% Triton X-100 (buffer B); settings: 37°C, up to 4 hours
IDE (insulysin), 45 nM = experiment: IDE in 100 mM KHPO4/KH2PO4 buffer pH 7.5 (buffer A); settings: 37°C, up to 30 min
IDE (insulysin), 50 nM = experiment: as above; settings: 37°C, up to 2 hours
NEP (neprilysin), 1.2 µM = experiment: NEP in 100 mM Tris-HCl pH 7.4, 1% Triton X-100 (buffer B); settings: 37°C, up to 4 hours
IDE [3] = target: T1, IDE; experiment: Specificity/inhibition of T40-degrading activity of IDE; format: biochemical; parameters: purchased Merck, UK; settings: 16 µM T40, 22 nM IDE, 37°C, 90 min
Experimental: as §1, §2

Compound: CSCC[C@H](NC(=O)[C@H](Cc1ccc(O)cc1)NC(=O)[C@H](CO)NC(=O)[C@H](CO)NC(=O)[C@H](Cc1c[nH]c2ccccc12)NC(=O)[C@H](CCCNC(=N)N)NC(=O)[C@H](Cc1c[nH]cn1)NC(=O)[C@H](Cc1ccccc1)NC(=O)[C@H](CCC(=O)O)NC(=O)[C@H](C)N)C(=O)N[C@H](C(=O)N[C@@H](Cc1c[nH]cn1)C(=O)N[C@@H](Cc1c[nH]c2ccccc12)C(=O)N[C@@H](CCCCN)C(=O)O)C(C)C [AChE586-599] (H-AEFHRWSSYMVHWK-OH)
- time for complete digestion of AChE586-599 by NEP (NEP; 40 µM AChE586-599, 772 nM NEP, Tris-HCl pH 7.4, 1% Triton X-100, RP-HPLC/MS): ≤ 4 h
- degradation of AChE586-599 by IDE (IDE [1]; 63 µM AChE586-599, 45 nM IDE, 30 min, buffer pH 7.5, RP-HPLC/MS): degraded
- extent of AChE586-599 digestion by IDE (IDE [1]; 63 µM AChE586-599, 273 nM IDE, 30 min, RP-HPLC/MS): complete IDE digestion

Compound: CSCC[C@H](NC(=O)[C@H](Cc1ccc(O)cc1)NC(=O)[C@H](CO)NC(=O)[C@H](CO)NC(=O)[C@H](Cc1c[nH]c2ccccc12)NC(=O)[C@H](CCCNC(=N)N)NC(=O)[C@H](Cc1c[nH]cn1)NC(=O)[C@H](Cc1ccccc1)NC(=O)[C@H](CCC(=O)O)NC(=O)[C@H](C)NC(=O)[C@H](CCCCN)NC(=O)[C@H](Cc1c[nH]c2ccccc12)NC(=O)[C@H](CCC(N)=O)NC(=O)[C@H](CCCNC(=N)N)NC(=O)[C@H](CCC(=O)O)NC(=O)[C@H](C)NC(=O)[C@H](CCC(=O)O)NC(=O)[C@H](CC(=O)O)NC(=O)[C@H](CC(C)C)NC(=O)[C@@H](NC(=O)[C@@H](N)CC(=O)O)[C@@H](C)O)C(=O)N[C@H](C(=O)N[C@@H](Cc1c[nH]cn1)C(=O)N[C@@H](Cc1c[nH]c2ccccc12)C(=O)N[C@@H](CCCCN)C(=O)N[C@@H](CC(N)=O)C(=O)N[C@@H](CCC(N)=O)C(=O)N[C@@H](Cc1ccccc1)C(=O)N[C@@H](CC(=O)O)C(=O)N[C@@H](Cc1c[nH]cn1)C(=O)N[C@@H](Cc1ccc(O)cc1)C(=O)N[C@@H](CO)C(=O)N[C@@H](CCCCN)C(=O)N[C@@H](CCC(N)=O)C(=O)N[C@@H](CC(=O)O)C(=O)N[C@@H](CCCNC(=N)N)C(=O)N[C@@H](CS)C(=O)N[C@@H](CO)C(=O)N[C@@H](CC(=O)O)C(=O)N[C@@H](CC(C)C)C(=O)O)C(C)C [T40] (H-DTLDEAERQWKAEFHRWSSYMVHWKNQFDHYSKQDRCSDL-OH)
- effect of NEP exposure on peptide level (NEP): remained unchanged
- extent of T40 digestion by IDE at 30 min (IDE [1]; 60 µM T40, 50 nM IDE, buffer pH 7.5, RP-HPLC C4, UV 280 nm): near complete digestion
- incubation time for complete disappearance of monomeric T40 with IDE (IDE [2]; 100 mM KHPO4/KH2PO4 buffer pH 7.5, western blot KD69): ≤ 80 min
- fate of dimeric T40 with IDE (IDE [2]; buffer pH 7.5, up to 80 min, western blot KD69): remained undigested

Compound: AEFHRWSSYMVHWK
- cleaved bond (NEP (neprilysin), 772 nM): Ser8-Tyr9, first_seen, 30 min; also recorded: His12-Trp13, first_seen, 30 min; also recorded: H4-R5, first_seen, 30 min
- cleaved bond (IDE (insulysin), 45 nM): Ser8-Tyr9, first_seen, 30 min; also recorded: His12-Trp13, first_seen, 30 min

Compound: DTLDEAERQWKAEFHRWSSYMVHWKNQFDHYSKQDRCSDL
- cleaved bond (IDE (insulysin), 50 nM): Phe14-His15, first_seen, 2 min; also recorded: Ser19-Tyr20, first_seen, 2 min; also recorded: Trp24-Lys25, first_seen, 2 min
- not cleaved (NEP (neprilysin), 1.2 µM): levels remained unchanged after exposure to NEP (4 hours)

Compound: insulin
- concentration giving complete inhibition of IDE degradation of T40 (IDE [3]; western blot, equimolar to T40): 16 µM
- inhibition of IDE degradation of T40 (IDE [3]; insulin or IgG 2–16 µM, 1,10-phenanthroline 1 and 10 mM): dose dependent inhibition

Compound: substance P [reference compound]
- effect of NEP exposure on peptide level (NEP): degradation
